# Patent US5302609A, “Treatment of diabetic nephropathy” (The Regents of the University of Michigan, priority 1992, dated 1994)
# Where two headings read alike, the source gives them in different places.
# What was measured:
# [1] = test system: streptozotocin-induced diabetic male rats; test: PDMP treatment of streptozotocin diabetic rats (renal hypertrophy); type: in vivo, rat
# Experimental: (§1) Because there is gender specific expression of renal GSLs, only male rats were used. Shukla, A. et al., am. J. Physiol. 262: F24-F29 (1992). Male rats were fed a standard pellet laboratory chow and were provided with water ad libitum. Diabetes was induced by the administration of streptozotocin (80 mg/kg i.p.) dissolved in 10 mM Na citrate, pH 5.5. Controls were injected with buffer alone. Animals were provided with immediate access to food. Blood was obtained from the tail vein and blood glucose levels were determined with a Beckman glucose analyzer 48 h following the injection and at the time of organ resection. […] Therefore only animals with blood glucose concentrations between 13.5 and 32 mM were utilized. At the end of the experimental period, the animals were weighted, anesthetized with ether, and their kidneys removed and weighed. For UDP-Glc measurements, the kidneys were frozen in liquid nitrogen immediately following removal.
# (§2) The GlcCer synthase inhibitor PDMP was administered as the DL-hydrochlorideto both diabetic and control animals 14 days following the induction of diabetes with streptozotocin (see Table IV results). […] See Shukla, A. et al., J. Lipid. Res. 32:713-722 (1991). The piperonyl butoxide was prepared by dissolution in corn oil at a concentration of 150 mg/ml oil. The butoxide solution was administered intraperitoneally prior to injection of PDMP. On the first day of treatment this was given 4 h before PDMP treatment; on days 2 to 4 of treatment it was administered just prior to the PDMP injection. PDMP was prepared as an emulsion with the detergent Myrj 52 in normal saline, buffered with sodium acetate. The final concentrations of PDMP, Myrj 52 and sodium acetate in mg/ml were 6, 12, and 8 respectively. The PDMP was given intraperitoneally as a dose of 100 mg/kg body weight.
# (§3) Glomerular volumes were measured on paraffin sections of kidney fixed in formalin and stained with periodic acid Schiff reagent. The measurements required the determination of the mean glomerular random cross sectional area (A(G)). Glomerular areas were measured using a Javelin Chromachip camera (Javelin Electronics, Torrance, Calif.) attached to an Olympus BH-2 microscope interfaced with a Macintosh II computer containing an Image Capture 2 frame grabber (Scion Corp., Walkerville, Md.) and image 1.38B14 software (NIH Public Software, Bethesda, Md.). Glomerular volumes were derived by the method described in Weibel "Stereological Methods. Practical Methods for Biological Morphometry," (academic Press, London) p. 44-45 (1979) as applied by Hirose, K. et al., Kidney Int. 21:689-695 (1982).
# (§4) To determine whether the increase in glucolipid formation in diabetes was functionally important, the following experiment was performed. One group of animals was made diabetic with streptozotocin, and the other group received vehicle alone. After two weeks, the control and diabetic groups were divided according to the weights of the rats. Half of the non-diabetic and half of the diabetic animals received DL-threo-PDMP, which is the racemic mixture of the compound of the Formula I where n is 8. The control non-diabetic and diabetic groups were pair fed and received vehicle alone. After 4 days of treatment the animals were weighed and sacrificed. In Table V, the data are expressed as the mean ± S.D. All animals received the cytochrome P450 inhibitor piperonyl butoxide (600 mg/kg) intraperitoneally. Treated control and diabetic animals received DL-threo-PDMP.
# [2] = test system: Madin-Darby canine kidney (MDCK) cells; settings: Shayman et al. 1991; cited from earlier work
# [3] = 100 mg/kg, cited from earlier work
# [4] = test system: non-diabetic control male rats; test: PDMP treatment of non-diabetic control rats; type: in vivo, rat
# Experimental: as §1, §2, §3, §4
# [5] = in vivo
# [6] = Diabetic + PDMP, n=7, DL-threo-PDMP 100 mg/kg i.p. 4 days with piperonyl butoxide, mean ± S.D.
# [7] = Control + PDMP, n=11, DL-threo-PDMP 100 mg/kg i.p. 4 days with piperonyl butoxide, mean ± S.D.
Structure (SMILES),"kidney weights of PDMP-treated diabetic animals compared with untreated diabetic animals ([1]; 4 days of treatment, animals hyperglycemic)","Body Weight ([1]; Diabetic + PDMP, n=7, DL-threo-PDMP 100 mg/kg i.p. 4 days from 14 days after streptozotocin, with piperonyl butoxide 600 mg/kg i.p., mean ± S.D.)","BUN [1, 6]","Kidney Weight [1, 6]","glomerular volumes compared with control groups ([1]; morphometric analysis, five kidneys per group, diabetic animals treated with PDMP)","renal histology (drug-induced toxicity) ([1]; periodic acid Schiff stained kidney sections: acute tubular necrosis, acute or chronic inflammation, glomerular pathology)","Creatinine ([1]; serum, Diabetic + PDMP, n=7, DL-threo-PDMP 100 mg/kg i.p. 4 days with piperonyl butoxide, mean ± S.D.)",endogenous glycosphingolipid content [2],half life of PDMP ([3]; animals exposed to the mixed function oxidase inhibitor PB),half life of PDMP ([3]; without piperonyl butoxide (PB)),"Body Weight ([4]; Control + PDMP, n=11, DL-threo-PDMP 100 mg/kg i.p. 4 days with piperonyl butoxide 600 mg/kg i.p., mean ± S.D.)","BUN [4, 7]","Kidney Weight [4, 7]","glomerular size ([4]; morphometric analysis, five kidneys per group, non-diabetic rats)","Creatinine ([4]; serum, Control + PDMP, n=11, DL-threo-PDMP 100 mg/kg i.p. 4 days with piperonyl butoxide, mean ± S.D.)",effect on renal growth or function [5]
"CCCCCCCCCC(=O)N[C@H](CN1CCOCC1)[C@H](O)c1ccccc1 (relative stereo) [PDMP, 1-phenyl-2-decanoylamino-3-morpholino-1-propanol]",significantly lower,200 ± 11 g,28 ± 6.4 mg/dL,2.32 ± 0.19 g,not significantly different,"no evidence of acute tubular necrosis, acute or chronic inflammation, or glomerular pathology",0.23 ± 0.05,decreased,4 h,1 h,238 ± 21 g,13 ± 3.2 mg/dL,2.25 ± 0.27 g,no effect,0.31 ± 0.09,–
"CCCCOCCOCCOCc1cc2c(cc1CCC)OCO2 [PB, piperonyl butoxide]",–,–,–,–,–,–,–,–,–,–,–,–,–,–,–,no effect
"OC1C(O)C(O)C2OC2C1O (centres unmarked) [conduritol B epoxide, reference compound]",–,–,–,–,–,–,–,increased,–,–,–,–,–,–,–,–
